Measurements reported in US7863293B2, “CXCR4 chemokine receptor binding compounds” (Genzyme Corporation, priority 2003, dated 2011).
Where two headings read alike, the source gives them in different places.

Key:
[1] = tested on: progenitor cells (CFU-GM, BFU-E, CFU-GEMM) per mL of blood; settings: for Absolute Number Progenitors Per ML Blood, BFU-E / Absolute Number Progenitors Per ML Blood, CFU-GEMM / Absolute Number Progenitors Per ML Blood, CFU-GM: 1 hour post administration; for Absolute Progenitors Per ML Blood, BFU-E / Absolute Progenitors Per ML Blood, CFU-GEMM / Absolute Progenitors Per ML Blood, CFU-GM: 5 mg/Kg single s.c.; for Absolute Progenitors Per ML Blood, BFU-E / Absolute Progenitors Per ML Blood, CFU-GEMM / Absolute Progenitors Per ML Blood, CFU-GM / Fold Change Compared to Time 0, progenitors BFU-E / Fold Change Compared to Time 0, progenitors CFU-GEMM / Fold Change Compared to Time 0, progenitors GM: methylcellulose culture; for Fold Change Compared to Time 0, progenitors BFU-E / Fold Change Compared to Time 0, progenitors CFU-GEMM / Fold Change Compared to Time 0, progenitors GM: mice
Description: Progenitors were stimulated to form colonies in vitro with the combination of 1 U/ml rhu Epo, 50 ng/ml rhu SLF, 5% ^Vol/Vol pokeweed mitogen mouse spleen cell conditioned medium (PWMSCM), and 0.1 mM hemin. Plates were scored 7 days after incubation.

[2] = tested on: white blood cells; settings: human volunteers; 80 μg/kg s.c.
Description: (§1) Five healthy human volunteers having initial white blood cell counts of 4,500-7,500 cells/mm^3 were used in the study. […] Blood samples were obtained via catheter prior to the dose, and at various times up to 24 hours after dosing.
The blood samples were evaluated for total white blood cells, CD34 positive progenitor cells (via FACS analysis) as a percentage of total white blood cells, as well as the absolute numbers per mL and cycling status of granulocyte macrophage (CFU-GM), erythroid (BFU-E), and multipotential (CFU-GEMM) progenitor cells.

[3] = tested on: CFU-GM progenitor cells; settings: average of 5 donors, 80 μg/kg s.c.
Description: as §1
(§2) All progenitor cell results are based on the scoring of 3 culture plates per assay per point.
(§3) For the progenitor cell numbers and cycling status, the numbers of CFU-GM, BFU-E and CFU-GEMM in methylcellulose cultures by stimulation of the cells with 1 Unit (U)/ml recombinant human (rhu) erythropoietin, 100 U/ml rhu granulocyte-macrophage colony stimulating factor (GM-CSF), 100 U/ml rhu interleukin-3 (IL-3) and 50 ng/ml rhu steel factor (SLF=stem cell factor (SCF)). The CFU-GM were also evaluated in agar cultures stimulated with 100 U/ml rhu GM-CSF and 50 ng/ml rhu SLF. For both types of assays, colonies were scored after 14 day incubation in a humidified atmosphere with 5% CO2 and lowered (5%) O2 tension. Cell cycling status of progenitors was measured using a high specific activity tritiated thymidine kill technique as previously described (Broxmeyer, H. E., et al., Exp. Hematol. (1989) 17:455-459).

[4] = tested on: CFU-GM, BFU-E and CFU-GEMM progenitor cells; settings: 80 μg/kg s.c.; for Fold change compared to T = 0, BFU-E, methylcellulose culture, MEAN / Fold change compared to T = 0, CFU-GEMM, methylcellulose culture, MEAN / Fold change compared to T = 0, CFU-GM, methylcellulose culture, MEAN: average of 5 donors
Description: as §1, §2, §3

[5] = tested on: white blood cell count; settings: all patients, i.v. 10-80 μg/kg; 5-10 hours after administration
Description: Eleven human patients having initial white blood cell counts of 4,000-6,500 cells/mm^3 were used in the study. […] Aliquots from this stock solution were added to 50-ml bags of 0.9% saline for intravenous injection in amounts to achieve the desired dosage levels (10 μg/kg-80 μg/kg).
The subjects described in this example already contained an indwelling peripheral intravenous catheter. […] Blood samples were obtained prior to the dose, and at various times up to 24 hours after dose administration.
Three patients were administered dosages of 10 μg/kg (open circles); 3 patients were administered dosages of 20 μg/kg (solid circles); 3 patients were administered 40 μg/kg (open triangles); and 2 patients were administered 80 μg/kg (closed triangles).

[6] = tested on: bone marrow stem cells; settings: rats, coronary ligation; given within hours after cardiac ischemia, with or without rhG-CSF
Description: Adult rats are anesthetized and a thoracotomy is performed. The descending branch of the left coronary artery is ligated and not reperfused. […] Control rats are not treated with the reagents. The animals are monitored at one-week intervals by echocardiography and MRI. […] On the day of sacrifice, the hemodynamic functions are analyzed for left ventricle-end diastolic pressure, left ventricle-developed pressure and the rate of rise and fall of left ventricle pressure. The heart is then arrested in diastole and perfused via the abdominal aorta to flush residual blood from the vascular network of the myocardium. […] Several slices are made through the fixed heart and these are embedded in paraffin and sections. The sections are stained and analyzed by light microscopy to determine the size of the infarct in the treated and control animals. […] The immunohistochemical analysis involves the identification of transcription factors and surface markers expressed in early stages of myocyte development.

[7] = tested on: WBC counts; settings: HIV-infected patients; infusion 2.5 or 5.0 μg/kg/hr
[8] = tested on: WBC and circulating CD34+ progenitor/stem cells; settings: Phase 1 study, single dose of 80 μg/kg; cited from earlier work

## c1cc(CN2CCCNCCNCCCNCC2)ccc1CN1CCCNCCNCCCNCC1 [AMD3100, 1,1′-[1,4-phenylene-bis(methylene)]-bis-1,4,8,11-tetraazacyclotetradecane]
[1]; 1 mg/kg single s.c.
  Absolute Number Progenitors Per ML Blood, BFU-E: 62 per ML blood
  Absolute Number Progenitors Per ML Blood, CFU-GEMM: 27.1 per ML blood
  Absolute Number Progenitors Per ML Blood, CFU-GM: 424 per ML blood
[1]; 2.5 mg/kg single s.c.
  Absolute Number Progenitors Per ML Blood, BFU-E: 98.9 per ML blood
  Absolute Number Progenitors Per ML Blood, CFU-GEMM: 70.6 per ML blood
  Absolute Number Progenitors Per ML Blood, CFU-GM: 687.6 per ML blood
[1]; 15″
  Absolute Progenitors Per ML Blood, BFU-E: 134.5 per ML blood
  Absolute Progenitors Per ML Blood, CFU-GEMM: 90.4 per ML blood
  Absolute Progenitors Per ML Blood, CFU-GM: 791.6 per ML blood
[1]; 30″
  Absolute Progenitors Per ML Blood, BFU-E: 209.3 per ML blood
  Absolute Progenitors Per ML Blood, CFU-GEMM: 113.5 per ML blood
  Absolute Progenitors Per ML Blood, CFU-GM: 1805.5 per ML blood
[1]; 120″
  Absolute Progenitors Per ML Blood, BFU-E: 102.3 per ML blood
  Absolute Progenitors Per ML Blood, CFU-GEMM: 47.6 per ML blood
  Absolute Progenitors Per ML Blood, CFU-GM: 828.7 per ML blood
[1]; 5 mg/kg single s.c.
  Absolute Number Progenitors Per ML Blood, BFU-E: 92.8 per ML blood
  Absolute Number Progenitors Per ML Blood, CFU-GEMM: 69.5 per ML blood
  Absolute Number Progenitors Per ML Blood, CFU-GM: 608.4 per ML blood
[1]; 10 mg/kg single s.c.
  Absolute Number Progenitors Per ML Blood, BFU-E: 120.5 per ML blood
  Absolute Number Progenitors Per ML Blood, CFU-GEMM: 79.8 per ML blood
  Absolute Number Progenitors Per ML Blood, CFU-GM: 825.6 per ML blood
[1]; time 2′
  Fold Change Compared to Time 0, progenitors BFU-E: 2.07 fold
  Fold Change Compared to Time 0, progenitors CFU-GEMM: 1.85 fold
  Fold Change Compared to Time 0, progenitors GM: 2.86 fold
[1]; time 15″
  Fold Change Compared to Time 0, progenitors BFU-E: 2.72 fold
  Fold Change Compared to Time 0, progenitors CFU-GEMM: 3.51 fold
  Fold Change Compared to Time 0, progenitors GM: 2.73 fold
[1]; time 30″
  Fold Change Compared to Time 0, progenitors BFU-E: 4.24 fold
  Fold Change Compared to Time 0, progenitors CFU-GEMM: 4.41 fold
  Fold Change Compared to Time 0, progenitors GM: 6.23 fold
[2]
  time post-administration at which elevation of white blood cell count maximized: 6 h
[3]; T = 1 hour
  Fold change compared to T = 0, CFU-GM, agar culture, MEAN: 2.81 fold
[3]; T = 3 hours
  Fold change compared to T = 0, CFU-GM, agar culture, MEAN: 8.54 fold
[3]; T = 6 hours
  Fold change compared to T = 0, CFU-GM, agar culture, MEAN: 17.93 fold
[3]; T = 9 hours
  Fold change compared to T = 0, CFU-GM, agar culture, MEAN: 10.25 fold
[3]; T = 24 hours
  Fold change compared to T = 0, CFU-GM, agar culture, MEAN: 2.08 fold
[4]; P2, T = 1 hour
  fold change from T=0, progenitors BFU-E, methylcellulose culture: 1.43 fold
[4]; P4, T = 9 hours
  Absolute # of Progenitors per ML, BFU-E: 1343 per ML
[4]; T = 1 hour
  Fold change compared to T = 0, BFU-E, methylcellulose culture, MEAN: 1.99 fold
  Fold change compared to T = 0, CFU-GEMM, methylcellulose culture, MEAN: 2.32 fold
  Fold change compared to T = 0, CFU-GM, methylcellulose culture, MEAN: 4.77 fold
[4]; T = 3 hours
  Fold change compared to T = 0, BFU-E, methylcellulose culture, MEAN: 3.21 fold
  Fold change compared to T = 0, CFU-GEMM, methylcellulose culture, MEAN: 4.33 fold
  Fold change compared to T = 0, CFU-GM, methylcellulose culture, MEAN: 13.66 fold
[4]; T = 6 hours
  Fold change compared to T = 0, BFU-E, methylcellulose culture, MEAN: 6.01 fold
  Fold change compared to T = 0, CFU-GEMM, methylcellulose culture, MEAN: 10.07 fold
  Fold change compared to T = 0, CFU-GM, methylcellulose culture, MEAN: 21.71 fold
[4]; T = 9 hours
  Fold change compared to T = 0, BFU-E, methylcellulose culture, MEAN: 4.34 fold
  Fold change compared to T = 0, CFU-GEMM, methylcellulose culture, MEAN: 5.25 fold
  Fold change compared to T = 0, CFU-GM, methylcellulose culture, MEAN: 10.47 fold
[4]; T = 24 hours
  Fold change compared to T = 0, BFU-E, methylcellulose culture, MEAN: 1.26 fold
  Fold change compared to T = 0, CFU-GEMM, methylcellulose culture, MEAN: 1.53 fold
  Fold change compared to T = 0, CFU-GM, methylcellulose culture, MEAN: 1.56 fold
[5]
  change in white blood cell count: marked increase in white blood cell count

## c1cc(CN2CCCNCCNCCCNCC2)ccc1CN1CCCNCCNCCCNCC1 [AMD-3100]
[6]
  effect on cardiac remodeling, scar formation and myocardium: block to cardiac remodeling and scar formation
[7]
  time after discontinuation of the infusion at which WBC counts returned to baseline: 7 days
[8]
  WBC count: 17,000 /μl
